# From US8530413B2, “Heterocyclically substituted methoxyphenyl derivatives with an oxo group, processes for preparation thereof and use thereof as medicaments” (Sanofi, priority 2010, dated 2013)
# Biological target: T1, GPCR GPR40 (Rattus norvegicus, UniProt Q8K3T4)
# T1 construct: expressed in transfected cells; host or cells: HEK293
# Assay: In vitro FLIPR assay with recombinant cells which express the GPCR GPR40 (intracellular Ca2+)
# Format: cell-based
# Settings: recombinant HEK293 cells expressing GPR40; Fluo-4 Ca2+ change; 100% = 10 μM linoleic acid
# Protocol: In Vitro FLIPR Assay with Recombinant Cells which Express the GPCR GPR40
# Function-testing assays were performed by means of the FLIPR technique (“Fluorescence Imaging Plate Reader”, Molecular Devices Corp.). For this purpose, agonist-induced changes were determined in the intracellular concentration of Ca^2+ in recombinant HEK293 cells which expressed the GPCR GPR40.
# For the studies, cells were sown into 96-well microtiter plates (60 000 cells/well) and left to grow overnight. The medium was removed and the cells were incubated in buffer which contains the fluorescent dye Fluo-4. After this loading with dye, the cells were washed, test substance was added and changes were measured in the intracellular Ca^2+ concentration in the FLIPR instrument. Results were presented as the percentage change relative to the control (0%: no test substance added; 100%: 10 μM reference agonist linoleic acid added) and used to calculate dose/effect curves, and EC50 values were determined.
# T1 sequence (Q8K3T4 whole entry): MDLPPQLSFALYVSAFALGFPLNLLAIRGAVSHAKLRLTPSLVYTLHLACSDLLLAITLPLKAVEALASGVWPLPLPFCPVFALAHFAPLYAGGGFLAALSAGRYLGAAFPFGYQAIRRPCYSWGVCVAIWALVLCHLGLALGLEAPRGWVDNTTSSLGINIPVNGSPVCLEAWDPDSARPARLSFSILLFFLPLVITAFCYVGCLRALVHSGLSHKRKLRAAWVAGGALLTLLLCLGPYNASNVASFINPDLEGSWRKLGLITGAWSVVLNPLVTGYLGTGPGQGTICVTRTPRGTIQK
row,EC50 [µM],Structure (SMILES)
1,0.35,CC#CC(CC(=O)O)c1ccc(OCN2C(=O)C(C)(C)Oc3cccnc32)cc1 (stereo not drawn) [Example 9]
2,0.13,"CC#CC(CC(=O)O)c1ccc(OCN2C(=O)C(C)(C)c3cc(C(F)(F)F)ccc32)cc1 (stereo not drawn) [Example 3, 3-[4-(3,3-Dimethyl-2-oxo-5-trifluoromethyl-2,3-dihydroindol-1-ylmethoxy)phenyl]hex-4-ynoic acid]"
3,0.44,"CC#CC(CC(=O)O)c1ccc(OCN2C(=O)CC(C)(C)c3cc(Br)ccc32)cc1 (stereo not drawn) [Example 6, 3-[4-(6-Bromo-4,4-dimethyl-2-oxo-3,4-dihydro-2H-quinolin-1-ylmethoxy)phenyl]hex-4-ynoic acid]"
4,0.18,"CC#CC(CC(=O)O)c1ccc(OCN2C(=O)C(CC)(CC)c3cc(Br)ccc32)cc1 (stereo not drawn) [Example 5, 3-[4-(5-Bromo-3,3-diethyl-2-oxo-2,3-dihydroindol-1-ylmethoxy)phenyl]hex-4-ynoic acid]"
5,0.06,"CC#CC(CC(=O)O)c1ccc(OCN2C(=O)C(C)(C)Oc3ccccc32)cc1 (stereo not drawn) [Example 8, 3-[4-(2,2-Dimethyl-3-oxo-2,3-dihydrobenzo[1,4]oxazin-4-ylmethoxy)phenyl]hex-4-ynoic acid]"
6,0.28,"CC#CC(CC(=O)O)c1ccc(OCN2C(=O)C(C)(C)Oc3cc(Br)ccc32)cc1 (stereo not drawn) [Example 4, 3-[4-(7-Bromo-2,2-dimethyl-3-oxo-2,3-dihydrobenzo[1,4]oxazin-4-ylmethoxy)phenyl]hex-4-ynoic acid]"
7,0.11,"CC#CC(CC(=O)O)c1ccc(OCN2C(=O)C(C)(C)c3cc(Br)ccc32)cc1 (stereo not drawn) [Example 1, 3-[4-(5-Bromo-3,3-dimethyl-2-oxo-2,3-dihydroindol-1-ylmethoxy)phenyl]hex-4-ynoic acid]"
8,4.61,"CC#CC(CC(=O)O)c1ccc(OCN2C(=O)C(C)(C)c3ccc(Br)cc32)cc1 (stereo not drawn) [Example 2, 3-[4-(6-Bromo-3,3-dimethyl-2-oxo-2,3-dihydro-indol-1-ylmethoxy)phenyl]hex-4-ynoic acid]"
9,0.05,"CC#CC(CC(=O)O)c1ccc(OCn2c(=O)sc3ccccc32)cc1 (stereo not drawn) [Example 7, 3-[4-(2-Oxobenzothiazol-3-ylmethoxy)phenyl]hex-4-ynoic acid]"
